Key:
epidermal keratinocytes = test: Keratinocyte extracellular matrix attachment; assay type: cell-based, human
Protocol: Human, adult, epidermal keratinocytes, were purchased cryopreserved from Cascade Biologics Inc., Nottinghamshire, U.K. These cells (>500,000 viable cells/vial) were tested to be >70% viable, with the capacity to proliferate for at least 16 population doublings. The epidermal keratinocytes were cultured in serum-free, EpiLife® Medium (Cascade Biologics Inc.), supplemented with antibiotics (100 U/ml penicillin G sodium, […] streptomycin sulphate and 0.25 μg/ml amphotericin B) and EpiLife® Defined Growth Supplement (EDGS, consisting of purified bovine serum albumin, purified bovine transferring, hydrocortisone, recombinant human insulin-like growth factor type-1, prostaglandin E2 and recombinant human epidermal growth factor, Cascade Biologics Inc.). Epidermal keratinocytes cultures were maintained at 37° C., in a 5% CO2/95% air atmosphere, with the culture medium being changed every 2-3 days. Epidermal keratinocytes were used between 4-6 passages, for all experiments.
Prior to use, the PEP005/DMSO stock solution was removed from 4° C. storage and warmed to room temperature. […]

dermal fibroblasts = test: Fibroblast populated collagen lattice (FPCL) reorganization/contraction; assay type: cell-based, human; details: 0.1 μg/ml PEP005
Text: A normal adult skin biopsy (6 mm) was obtained (n=1), with informed consent, from an individual attending the Oral Surgery Clinic, School of Dentistry, Wales College of Medicine, Cardiff. Following the application of a local anaesthetic, the dermal biopsy was collected and adult dermal fibroblast cultures established by single cell suspension technique, following enzymic degradation of the specimen. This technique has previously been reliably used to establish viable primary cultures of both oral and dermal fibroblasts in vitro (Cook et al, 2000; Stephens et al, 2001; 2003). […]
The ability of dermal fibroblasts to remodel/reorganize their ECM environment in the presence of PEP005 was examined by fibroblast populated collagen lattices (FPCLs), according to Cook et al (2000). […] The degree of ECM reorganization/lattice contraction was quantified from three separate lattice diameter measurements performed on each of the three replicate samples, at days 1, 2, 3, 4, 5, 6, 7, 10 and 14, after initial fabrication. […]
Each experiment was performed on two separate occasions, with the % reductions in lattice contraction and the MMP densitometric values obtained being expressed as an average for each group of samples

## C/C=C(/C)C(=O)O[C@H]1C(C)=C[C@]23C(=O)[C@@H](C=C(CO)[C@@H](O)[C@]12O)[C@H]1[C@@H](C[C@H]3C)C1(C)C [PEP005, ingenol-3-angelate]
Epidermal keratinocytes; 0, 01-10 μg/ml PEP005
  epidermal keratinocyte attachment to type I collagen: significant dose-dependent stimulation
Epidermal keratinocytes; 1-μg/ml PEP005
  epidermal keratinocyte attachment to plasma fibronectin: trend towards a possible stimulation
Dermal fibroblasts
  Type I collagen lattice contraction: significantly increased

— US20090215884A1, “METHOD FOR WOUND HEALING” (priority 2005, published 2009)
